# Test system: S. aureus MW2
# Assay: Mouse MRSA bacteremia model: bispecific antibody alone or in combination with linezolid, kidney, lung and heart burden Day 4
# Format: in vivo, Humanized C1q (C1q^Hu/Hu) mice
# Protocol: The bacteremia model described above in Example 12 was used to evaluate the activity of an anti-IsdB× anti-C1q bispecific antibody against S. aureus MRSA strains in reducing bacterial burden when used in combination with a standard-of-care antibiotic.
# Humanized C1q (C1q^Hu/Hu) mice were infected intraperitoneally with 1.3×10^8 colony forming units (CFUs) per mouse of S. aureus MW2 in a volume of 200 ul. S. aureus MW2 was grown to log phase, OD600≤1, in TSB at 37° C. and washed 3 times in PBS and adjusted to the desired density for infection. Starting at eighteen (18) hours following infection, 2 groups of mice (n=5) were treated with 80 mg/kg of linezolid by oral gavage (200 ul volume), twice daily on Days 1, 2 and 3. […] Mice were weighed daily until Day 4 post infection and change in weight was recorded. Mice were euthanized on Day 4 and kidneys, lungs and hearts were collected to determine organ burden. Briefly, the organs were homogenized in 5 mL PBS using gentleMACS Octo Dissociator (Miltenyi Biotec) using programme-E. The tissue homogenates were then diluted in PBS and multiple 10-fold serial dilutions were plated on LB agar plates and incubated at 37° C. overnight. The next day, individual colonies were counted to determine bacterial burden and results were reported as CFUs/gram tissue.
structure (smiles),measurement,setting,value
"CC(=O)NC[C@H]1CN(c2ccc(N3CCOCC3)c(F)c2)C(=O)O1 [linezolid, reference compound]","log reduction in overall CFUs, lung",MW2,2 log
same,"log reduction in overall CFUs, kidneys","MW2, compared to infection control (8.5 logs)",less than 2 log
same,"log CFU reduction, heart","MW2, limit of detection 10^3 CFU",3 log
same,CFUs/g heart,"single agent (H1H20631D 100 ug/mouse, Antibiotic None; or Linezolid, no antibody), heart",2.08E+05 CFUs/g
same,CFUs/g kidney,"single agent (H1H20631D 100 ug/mouse, Antibiotic None; or Linezolid, no antibody), kidney",6.99E+06 CFUs/g
same,CFUs/g lung,"single agent (H1H20631D 100 ug/mouse, Antibiotic None; or Linezolid, no antibody), lung",6.98E+05 CFUs/g

# Source: patent publication US10865236B2, “Bispecific antigen-binding molecules that bind a staphylococcus target antigen and a complement component and uses thereof” (priority 2017, dated 2020)
